One test deals with SOS1 and KRAS G12D (Homo sapiens (Human), UniProt Q07889). As to the kind of experiment: KRAS::SOS1 AlphaScreen Binding Assay. Particulars: SOS1 (564-1049), KRAS G12D (1-169), GDP. From the text:
a. KRAS::SOS1 AlphaScreen Binding Assay
Low IC50 values of given compounds are indicative of high potency of the SOS1 inhibitor compounds in this assay setting.
• GST-TEV-SOS1 (564-1049) and His-TEV-Avi-KRAS G12D (1-169) are purchased from Viva Biotech (Shanghai) Ltd. • GDP (Sigma, Cat. G7127) • AlphaLISA Glutathione Acceptor Beads (PerkinElmer, Cat. AL109C) • AlphaScreen Streptavidin Donor Beads (PerkinElmer, Cat. 6760002S) • Assay plates: ProxiPlate-384 Plus, White 384-shallow well Microplate (PerkinElmer, Cat. 6008280)
SOS1 inhibitor compounds are diluted to a final start concentration of […]. Serial dilutions of compounds are made using Tecan D300e Digital Dispenser in 9 concentrations with serial 1:3 dilutions. 100 nL of compound solution is transferred to the 384-well assay plate per well, covering a range between 1 μM and 0.15 nM minimum in duplicate. 10 nM (final assay concentration) KRAS G12D, 5 nM (final assay concentration) SOS1 and 10 μM (final assay concentration) GDP are mixed in assay buffer, and 5 μL of KRAS::SOS1 GDP mix is added into the assay plate to the 100 nL of compound solution (final dilution in the assay 1:100, final DMSO concentration 1%). After a 30 min incubation, AlphaLISA Glutathione Acceptor Beads and AlphaScreen Streptavidin Donor Beads are mixed in assay buffer at a concentration of 5 µg/mL (final assay concentration), and 5 μL of bead mix is added into the assay plate. Plates are kept at room temperature in a darkened incubator for 3 h. After a 3 h incubation, the signal is determined using Envision (PerkinElmer). The excitation wavelength is 680 nm, and emission 615 nm. IC50 values are calculated and analyzed using GraphPad Prism.
(Bead proximity is the source of the signal in Alpha formats.)

The next test concerns NCI-H358. As to the kind of experiment: Cell proliferation assay, 3D, CellTiter-Glo 3D. Format: cell-based, human. The settings on record: Homo sapiens, 72 h; NCI-H358 (KRAS G12C), 3D ultra-low attachment, 3 days; read-out: anit-prolif. H358 IC50. The protocol: b. Cell Proliferation Assay
Low IC50 values are indicative of high potency of the compounds in this assay setting.
Cell proliferation assay is performed in three-dimensional (3D) ultra-low conditions with the human cell line NCI-H358, a human non-small cell lung cancer (NSCLC) cell line with a KRAS G12C mutation.
• 96-well Clear Round Bottom Ultra-Low Attachment Microplate (Corning, Cat. 7007) • 96-well Flat Clear Bottom White Polystyrene TC-treated Microplates (Corning, Cat. 3610) • RPMI-1640 Medium (Gibco, Cat. 22400105) • Fetal Bovine Serum (FBS) (Gibco, Cat. 10099141C) • 0.25% Trypsin-EDTA (Gibco, Cat. 25200056) • Penicillin-Streptomycin (Gibco, Cat. 15140122) • CellTiter-Glo 3D Cell Viability Assay (Promega, Cat. G9683)
NCI-H358 cells (ATCC, Cat. CRL-5807) are grown in cell culture flasks using RPMI medium supplemented with 10% FBS. Cells are incubated at 37° C. and 5% C02 in a humidified atmosphere, with sub-cultivation performed twice a week. Cells are trypsinized, counted and plated in 96-well ultra-low adhesion plates for 3D cell viability determination. The day after plating, serial dilutions of SOS1 inhibitor compounds are made using Tecan D300e Digital Dispenser to evaluate a concentration-dependent effect on cell viability. The concentration of the test compounds covers a range between 5 μM and 0.76 nM with serial 1:3 dilutions in 9 concentrations. 0.5 μL serial dilutions of the compounds are added in duplicates. 3 days later, the CellTiter-Glo 3D Cell Viability Assay is used to measure cell viability effects of SOS1 inhibitor compounds in 3D format. Luminescent intensity is determined using Envision (PerkinElmer). Data is analyzed and IC50 values are calculated using GraphPad Prism.
On the technique in general: In ATP-based viability assays light output follows the ATP content of the culture.

Some results are limits rather than exact numbers.

Chain of SOS1 and KRAS G12D (Q07889 564-1049, stated change not applied): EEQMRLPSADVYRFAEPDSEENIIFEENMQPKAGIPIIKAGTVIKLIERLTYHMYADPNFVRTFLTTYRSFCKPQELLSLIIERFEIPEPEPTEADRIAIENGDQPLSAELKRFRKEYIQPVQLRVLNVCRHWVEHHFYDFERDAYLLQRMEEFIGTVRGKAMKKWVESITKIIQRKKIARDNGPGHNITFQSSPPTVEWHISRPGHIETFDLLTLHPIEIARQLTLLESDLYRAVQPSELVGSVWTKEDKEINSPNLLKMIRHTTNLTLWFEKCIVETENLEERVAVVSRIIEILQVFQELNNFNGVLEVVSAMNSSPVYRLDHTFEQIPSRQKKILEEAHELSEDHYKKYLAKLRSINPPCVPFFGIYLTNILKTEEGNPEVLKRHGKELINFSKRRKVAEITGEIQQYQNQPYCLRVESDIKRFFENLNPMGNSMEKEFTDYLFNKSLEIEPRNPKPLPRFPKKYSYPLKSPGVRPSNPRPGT

A word on the IC50: it is the midpoint of a concentration-inhibition curve. For `Cc1nc(N[C@H](C)c2cccc(C(F)F)c2F)c2cn(N3CCOCC3)c(=O)c(-c3ccc(F)c(C#N)c3)c2n1` [Example 63], the IC50 at SOS1 and KRAS G12D fell in the range of 15 to 150 nM; in the test with NCI-H358 it was 500 to 1000 nM.
With `Cc1nc(N[C@H](C)c2cccc(C(F)F)c2F)c2cn(N3CCS(=O)(=O)CC3)c(=O)cc2n1` [Example 36], the IC50 on SOS1 and KRAS G12D was at most 15 nM; in the test with NCI-H358 it was 100 to 500 nM.
Take `C=C(C)c1c(=O)n(N2CCOCC2)cc2c(N[C@H](C)c3cccc(C(F)F)c3F)nc(C)nc12` [Example 56]: the IC50 at SOS1 and KRAS G12D was at most 15 nM; with NCI-H358 it was 100 to 500 nM.
Consider `Cc1nc(N[C@H](C)c2cccc(C(F)F)c2F)c2cn(N3CCOCC3)c(=O)c(-c3ccc(N)nc3)c2n1` [Example 48], for which the half-inhibitory concentration (IC50) is at most 15 nM at SOS1 and KRAS G12D; 100 to 500 nM in the test with NCI-H358.
As for `Cc1nc(N[C@H](C)c2cccc(C(F)F)c2F)c2cn(N3CCOCC3)c(=O)c(Br)c2n1` [Example 40, 8-bromo-4-[[(1R)-1-[3-(difluoromethyl)-2-fluoro-phenyl]ethyl]amino]-2-methyl-6-morpholino-pyrido[4,3-d]pyrimidin-7-one], the IC50 at SOS1 and KRAS G12D was at most 15 nM; with NCI-H358, at most 100 nM.
The like results for `Cc1nc(N[C@H](C)c2cccc(C(F)F)c2F)c2cn(N3CCOCC3)c(=O)c(-c3ccc(F)nc3)c2n1` [Example 50] were, in that order, at most 15 nM and 100 to 500 nM.
`Cc1nc(N[C@H](C)c2cccc(C(F)F)c2F)c2cn(N3CCOCC3)c(=O)c(-c3ccn[nH]3)c2n1` [Example 81]: the IC50 at SOS1 and KRAS G12D was at most 15 nM.
As to `Cc1nc(N[C@H](C)c2cccc(C(F)F)c2F)c2cn(N3CCC(O)CC3)c(=O)cc2n1` [Example 37], the IC50 is at most 15 nM on SOS1 and KRAS G12D; 100 to 500 nM with NCI-H358.
With `Cc1nc(N[C@H](C)c2cccc(C(F)F)c2F)c2cn(N3CC4CC3CO4)c(=O)cc2n1` (stereo partly shown) [Example 8], the IC50 was at most 15 nM on SOS1 and KRAS G12D; 100 to 500 nM in the test with NCI-H358.
The like results for `Cc1nc(N[C@H](C)c2cccc(C(F)F)c2F)c2cn(N3CCCC3=O)c(=O)cc2n1` [Example 38] were, in that order, at most 15 nM and 500 to 1000 nM.
Take `Cc1nc(N[C@H](C)c2cccc(C(F)F)c2F)c2cn(N3CCN(c4ccc(C#N)cn4)CC3)c(=O)cc2n1` [Example 15, 6-[4-[4-[[(1R)-1-[3-(difluoromethyl)-2-fluoro-phenyl]ethyl]amino]-2-methyl-7-oxo-pyrido[4,3-d]pyrimidin-6-yl]piperazin-1-yl]pyridine-3-carbonitrile]: the IC50 is 15 to 150 nM at SOS1 and KRAS G12D; at most 100 nM in the test on NCI-H358.
The compound `Cc1nc(NCc2cccc(C(F)(F)F)c2)c2cn(N3CCOCC3)c(=O)cc2n1` [Example 26] returned an IC50 at SOS1 and KRAS G12D of 15 to 150 nM.
For `Cc1nc(N[C@H](C)c2cccc(C(F)F)c2F)c2cn(N3CCN(C(=O)CO)CC3)c(=O)cc2n1` [Example 13, 4-[[(1R)-1-[3-(difluoromethyl)-2-fluoro-phenyl]ethyl]amino]-6-[4-(2-hydroxyacetyl)piperazin-1-yl]-2-methyl-pyrido[4,3-d]pyrimidin-7-one], the half-inhibitory concentration (IC50) at SOS1 and KRAS G12D is at most 15 nM; in the test on NCI-H358 it was 500 to 1000 nM.
The like results for `Cc1nc(N[C@H](C)c2cccc(C(F)F)c2F)c2cn(N3CCOCC3)c(=O)c(-c3ccc(C#N)cc3)c2n1` [Example 57] were, in that order, at most 15 nM and at most 100 nM.
Consider `Cc1nc(N[C@H](C)c2cccc(C(F)F)c2F)c2cn(N3CCOCC3)c(=O)c(-c3ccc(C(F)(F)F)nc3)c2n1` [Example 60], for which the IC50 on SOS1 and KRAS G12D is 15 to 150 nM; in the test with NCI-H358 it was at most 100 nM.
In turn, `Cc1nc(N[C@H](C)c2cccc(C(F)F)c2F)c2cn(N3CCOCC3)c(=O)c(-c3ccc(C(=O)O)nc3)c2n1` [Example 78] yielded an IC50 at SOS1 and KRAS G12D of at most 15 nM.
On to `Cc1nc(N[C@H](C)c2cccc(C(F)F)c2F)c2cn(N3CCOCC3)c(=O)c(C)c2n1` [Example 44], for which the IC50 is at most 15 nM at SOS1 and KRAS G12D; at most 100 nM in the test on NCI-H358.
Consider `Cc1nc(N[C@H](C)c2cccc(C(F)F)c2F)c2cn(N3CCN(C(=O)OC(C)(C)C)CC3)c(=O)cc2n1` [Example 4], for which the IC50 at SOS1 and KRAS G12D lay within 15 to 150 nM; in the test with NCI-H358, 100 to 500 nM.
The like results for `Cc1nc(N[C@H](C)c2cccc(C(F)F)c2F)c2cn(N3C[C@@H](C)O[C@@H](C)C3)c(=O)cc2n1` [Example 5] were, in that order, at most 15 nM and 100 to 500 nM.
Consider `Cc1nc(N[C@H](C)c2cccc(C(F)(F)CO)c2)c2cn(N3CCOCC3)c(=O)c(F)c2n1` [Example 32], for which the half-inhibitory concentration (IC50) at SOS1 and KRAS G12D is at most 15 nM; in the test with NCI-H358 it was at most 100 nM.
Consider `Cc1nc(N[C@H](C)c2cccc(C(F)F)c2F)c2cn(N3CCOCC3)c(=O)c(-c3ccc4nccn4c3)c2n1` [Example 73], for which the IC50 on SOS1 and KRAS G12D is at most 15 nM; in the test on NCI-H358, at most 100 nM.
The like results for `Cc1nc(N[C@H](C)c2cccc(C(F)F)c2F)c2cn(N3CCN(C(=O)CC#N)CC3)c(=O)cc2n1` [Example 14] were, in that order, at most 15 nM and 500 to 1000 nM.
The like results for `Cc1nc(N[C@H](C)c2cccc(C(F)F)c2F)c2cn(N3CCOCC3)c(=O)c(-c3cc(C#N)ccc3F)c2n1` [Example 65] were, in that order, 15 to 150 nM and 100 to 500 nM.
Regarding `COC(=O)c1ccc(-c2c(=O)n(N3CCOCC3)cc3c(N[C@H](C)c4cccc(C(F)F)c4F)nc(C)nc23)cn1` [Example 79], the IC50 on SOS1 and KRAS G12D was at most 15 nM.
Regarding `Cc1nc(N[C@H](C)c2cccc(C(F)F)c2F)c2cn(N3CCOC3=O)c(=O)cc2n1` [Example 39], the 50% inhibitory concentration (IC50) on SOS1 and KRAS G12D was at most 15 nM; in the test on NCI-H358 it was 100 to 500 nM.
The like results for `Cc1nc(N[C@H](C)c2cccc(C(F)F)c2F)c2cn(N3CCOCC3)c(=O)c(C3=CCN(S(C)(=O)=O)CC3)c2n1` [Example 55] were, in that order, at most 15 nM and 100 to 500 nM.
The like results for `Cc1nc(N[C@H](C)c2cccc(C(F)F)c2F)c2cn(N3CCOCC3)c(=O)c(C3=CCOC3)c2n1` [Example 54] were, in that order, at most 15 nM and 100 to 500 nM.
For `CCC(Nc1nc(C)nc2cc(=O)n(N3CCOCC3)cc12)c1cccc(C(F)(F)F)c1` (stereo not shown) [Example 24], the IC50 on SOS1 and KRAS G12D lay within 15 to 150 nM; in the test with NCI-H358 it was 100 to 500 nM.
In the case of `Cc1nc(N[C@H](C)c2cccc(C(F)F)c2F)c2cn(N3CCOCC3)c(=O)c(-c3ccc(C(N)=O)nc3)c2n1` [Example 80], the IC50 on SOS1 and KRAS G12D was at most 15 nM.
For `Cc1nc(NC(C)C2CC2)c2cn(N3CCOCC3)c(=O)cc2n1` (stereo not shown) [Example 23], the IC50 at SOS1 and KRAS G12D was over 1000 nM.
At SOS1 and KRAS G12D, `Cc1nc(N[C@H](C)c2cccc(C(F)F)c2F)c2cn(N3CCOCC3)c(=O)c(-c3cnc4nccn4c3)c2n1` [Example 84] displayed an IC50 of at most 15 nM.
On the same count and under the same terms, next, `Cc1nc(NCc2ccc3cc[nH]c3c2)c2cn(N3CCOCC3)c(=O)cc2n1` [Example 27]: over 1000 nM; `Cc1nc(N[C@H](C)c2cccc(C(F)F)c2F)c2cn(-n3cnnc3)c(=O)c(F)c2n1` [Example 87]: 150 to 1000 nM.
`Cc1nc(N[C@H](C)c2cccc(C(F)(F)CO)c2)c2cn(N3CCOCC3)c(=O)c(-c3ccc(C#N)nc3)c2n1` [Example 82] had an IC50 at SOS1 and KRAS G12D of at most 15 nM.
With `Cc1nc(N[C@H](C)c2cc(N)cc(C(F)(F)F)c2)c2cn(N3CCOCC3)c(=O)c(-c3ccc(C#N)nc3)c2n1` [Example 83], the IC50 at SOS1 and KRAS G12D was at most 15 nM.
`Cc1nc(NC(C)c2cc(C(F)F)cc(C(F)F)c2)c2cn(N3CCOCC3)c(=O)cc2n1` (stereo not shown) [Example 28] gave an IC50 at SOS1 and KRAS G12D of 150 to 1000 nM.
The compound `Cc1nc(N[C@H](C)c2cccc(C(F)F)c2F)c2cn(N3CCOCC3)c(=O)c(C3=CCS(=O)(=O)CC3)c2n1` [Example 85] had an IC50 at SOS1 and KRAS G12D of at most 15 nM.

The values are drawn from US20240051956A1, “SOS1 INHIBITORS AND USES THEREOF” (QILU REGOR THERAPEUTICS INC., priority 2020, published 2024).
